# System: K. pneumonia HSD
# Assay: microbe, parasite or virus in culture
# Design: species or system bacterial strains
# Conditions: not given
row,MIC (μg/mL)^a / K. pneumonia HSD,Compound
1,128 µg/mL,CO/N=C(\C(=O)N[C@@H]1C(=O)N2C(C(=O)[O-])=C(C[N+]3(C)CCCC3)CS[C@H]12)c1csc(N)n1 [Cefepime]

# Same assay, conditions: Klebsiella pneumoniae, read-out: MIC (μg/mL)^a / K. pneumonia HSD
row,Compound,MIC
1,NCC[C@H](O)C(=O)N[C@@H]1C[C@H](N)[C@@H](O[C@H]2O[C@H](CN)[C@@H](O)[C@H](O)[C@H]2O)[C@H](O)[C@H]1O[C@H]1O[C@H](CO)[C@@H](O)[C@H](N)[C@H]1O [Amikacin],> 128 µg/mL
2,CC1(C)S[C@@H]2[C@H](NC(=O)[C@H](N)c3ccc(O)cc3)C(=O)N2[C@H]1C(=O)O [Amoxicillin],> 32 µg/mL
3,C[C@@H](O)[C@H]1C(=O)N2C(C(=O)O)=C(S[C@@H]3CN[C@H](C(=O)Nc4cccc(C(=O)O)c4)C3)[C@H](C)[C@H]12 [Ertapenem],32 µg/mL

# Continued, values first:
row,MIC,Compound
1,4 µg/mL,C[C@@H](O)[C@H]1C(=O)N2C(C(=O)O)=C(S[C@@H]3CN[C@H](C(=O)N(C)C)C3)[C@H](C)[C@H]12 [Meropenem]
2,> 128 µg/mL,CC(C)(O/N=C(\C(=O)N[C@@H]1C(=O)N2C(C(=O)[O-])=C(C[n+]3ccccc3)CS[C@H]12)c1csc(N)n1)C(=O)O [ceftazidime]

# Source: publication PMC11172257 (Emerging Microbes & Infections, 2024)
